The record followed here is US20190194279A1, “Wound Healing Peptide” (James Cook University, priority 2016, published 2019).

For test [1], the system named is H69 cells. Briefly: Cell proliferation monitoring in real time using xCELLigence (Example 2, 200 nM, 48 h). It is filed as cell-based, human. Conditions: 200 nM peptide. The method, then:
H69 cell line, non-malignant cholangiocyte cell line was obtained from Dr. Gregory J. Gores, Mayo Clinic, Rochester, Minn.^34. H69 cells were grown and maintained as previously described^34 in DMEM/F12 (Life Technologies) containing 1× antibiotic/antimycotic and 15 mM HEPES, supplemented with 10% fetal bovine serum (FBS) (Gibco, Scotland) at 37 C and 5% incubator. Cell proliferation assays were performed with modified DMEM/F12 media supplemented with 0.5% FBS and particular hormone and growth factors in a certain concentration range as listed in the previous study^34.
Proliferation study in real time was performed using xCELLigence SP system (ACEA Biosciences) as described previously^34. H69 cells were plated into a 96-well xCELLigence E-plate (ACEA Biosciences) at a density of 2000 cells/well; then placed in the xCELLigence system positioned in a 5% CO2 incubator at 37° C. and monitored overnight^47. Then, the complete media was replaced with 180 μl of starvation media (modified DMEM/F12 media supplemented with […] as described previously^34) and incubated for at least 6 hour. Treatments were added to each well in a total volume of 20 μl to provide 200 nM final concentrations. […] Cell proliferation rate was calculated as the relative numbers of treated cells compared to control cells over time (48 hours in culture). […] Each treatment was measured in quadruplicate.

Test [2] concerns skin-deep wound on the crown of the head. It is filed as in vivo, BALB/c mice. Conditions: mouse; for day 4 wound healing relative to controls, result in words (Example 3): 56 pmoles topical daily days 0-4, relative to peptide control. The method, then: These studies were conducted with the approval of the James Cook University Small Animal Ethics Committee, applications A1806 and A2204, as described^6. Briefly, 4-5 female BALB/c mice per group were anesthetized (intraperitoneal xylazine 16 mg/kg; ketamine 80 mg/kg), after which a skin-deep wound on the crown of the head was inflicted using a 5 mm biopsy punch (Zivic instruments). […] Wounds were photographed daily and after blinding treatment groups the area of the lesion was measured with ImageJ software and plotted as percent of wound closure from original wound images. […] Each mouse wounding study was conducted at least twice to provide reproducibility.
Day 4 wound healing were assessed using peptides as described herein (Ov-GRN-1, Ov-GRN1-35, Ov-GRN8-38, Ov-GRN12-34, Ov-GRN12-35_3s, GRN24-3ala, GRN24-P2A, GRN24-P4A, and GRN27sps).

Test [3] has as its system H69 human cholangiocytes. Briefly: Cell proliferation monitoring in real time using xCELLigence (Example 1, day 4). The class given is cell-based. Conditions: for increase in cell proliferation over peptide controls: at 400 nM; for cell proliferation, result in words: concentrations tested 10 nM-2 μM. An excerpt:
Mammalian Cell Culture The non-malignant cholangiocyte cell line H69 is a SV40-transformed human bile duct epithelial cell line derived from human liver, kindly provided by Dr. Gregory J. Gores, Mayo Clinic, Rochester, Minn. H69 cells^23, 29, 30 were maintained in T75 cm^2 vented flasks (Corning) as monolayers as described^31 with minor modifications. Cells were maintained with regular splitting using 0.25% trypsin (Life Technologies) every 2-5 days in complete media [RPMI (Sigma) with growth factor-supplemented specialist complete media^30 [DMEM/F12 with high glucose, 10% FCS, 1×antibiotic/antimycotic, 25 μg/ml adenine, 5 μg/ml insulin, 1 μg/ml epinephrine, 8.3 μg/ml holo-transferrin, 0.62 μg/ml, hydrocortisone, 13.6 ng/ml T3 and 10 ng/ml EGF—Life Technologies]. Low nutrient media for cell proliferation assays was 5% complete media, i.e. 0.5% FCS and 1/20th of the growth factor concentrations listed above for complete media. The identities (human-derived) of the cell line were confirmed with […] (STR) analysis in January 2015 (15/15 positive loci across 2 alleles) and mycoplasma free at the DNA Diagnostics Centre (DDC)-medical (U.S.A.), accredited/certified by CAP, ISO/IEC 17025:2005 through ACLASS.
Cell proliferation monitoring in real time using xCELLigence Cells were seeded at 1,500 cells/well in 180 μl complete media (above) in E-plates (ACEA Biosciences) and grown overnight while monitored with an xCELLigence SP system (ACEA Biosciences) which monitors cellular events in real time by measuring electrical impedance across interdigitated gold micro-electrodes integrated into the base of tissue culture plates^32. Cells were washed three times with PBS prior to addition of 180 μl of low nutrient media (above) and incubated for a minimum of 6 h before further treatment. Treatments were prepared at 10× concentration and added to each well in a total volume of 20 μl. The xCELLigence system recorded cell indexes at intervals of one hour for 5-6 days following treatment. Readings for the cell index were normalized prior to treatment and cell proliferation ratios were determined from biological quadruplicates and represent the relative numbers of cells compared to control cells at day 4. Comparisons of induction of cell proliferation in response to treatments were accomplished using two-way ANOVA test with Dunnett's multiple comparison correction, using GraphPad Prism 6.02.

Entries after “also recorded” stand apart in the source; their conditions may differ. Where no end group is shown, it is not given here.

As to CADAVYTCRAGQTCCRGLHGYGCC [GRN3Ala], the “effect on cell proliferation compared to the control peptide, result in words” value in test [1] is on record as “did not have statistically significant effect”; in test [1] (listed as SEQ ID NO:9) it was “did not enhance cell proliferation”.

Take CADPVYTCRPGQTCCRGLHGYGCC [GRN24P2A]: in test [1], the “proliferation rate relative to the control peptide” value is 131.7%. As for CPDAVYTCRPGQTCCRGLHGYGCC [P4A], the “proliferation rate relative to the control peptide” value in test [1] is on record as 141.6%. Still for that read-out and setting: for CPDPVYTCRAGQTCCRGLHGYGCC [P10A] the value was 131.4%. For “CPDPVYTCRPGQTCCRGLHGYGCC [Ov-GRN12-35_3s]”, in test [2], the “wound healing activity in vivo compared with the other Ov-GRN-1 peptides, in words” value is reported as “no more active in vivo than the other Ov-GRN-1 peptides” and the “day 4 wound healing relative to controls, result in words (Example 3)” value (“day 4 wound healing relative to controls” for short) is recorded as “significant increases in wound healing”. Besides, in test [3], the “increase in cell proliferation over peptide controls” value turned out to be 26% and the “cell proliferation, result in words” value is given as “most potent peptide in the cell proliferation assay”. Also, the “increase in cell growth compared to control peptide” value in test [3] (final concentration of 2 (unit not given), day 4) is recorded as 41%. The “final concentrations with significantly increased cell proliferation (p<0.05)” value in test [3] (four days after single application) was > 15 nM. In the case of “Ov-GRN1-35: truncated Ov-GRN-1 peptide, residues 1-35, four cysteines, two disulfide bonds, Cys IV and Cys VI replaced with alanine (MDTLQPIRSPSCPDPVYTCRPGQTCARGLHGYGCA; disulfide (positions not given here))”, the “day 4 wound healing relative to controls” value in test [2] is “significant increases in wound healing”. Also, the “increase in cell proliferation over peptide controls” value in test [3] was determined as 9%. Consider “Ov-GRN8-38: truncated Ov-GRN-1 peptide, residues 8-38, two disulfide bonds (RSPSCPDPVYTCRPGQTCARGLHGYGCAPMD; disulfide (positions not given here))”, for which the “day 4 wound healing relative to controls” value in test [2] is “significant increases in wound healing”. On the same count and under the same terms, for “Ov-GRN12-34: minimal Ov-GRN-1 sequence that contains the four cysteine residues, two disulfide bonds (CPDPVYTCRPGQTCARGLHGYGC; disulfide (positions not given here))” the value was “significant increases in wound healing”.

In the case of “carp granulin1-30: N-terminal 30 residues of carp granulin-1 with Cys IV and Cys VI replaced with alanine residues (VIHCDAATICPDGTTCALSPYGVWYCAPFS) [reference compound]”, in test [3] (at 32 nM), the “maximum proliferation over peptide controls” value was determined as 9%. Besides, in test [3], the “cell proliferation, result in words” value is listed as “minimal cell proliferation (non-significant); also recorded: no substantial proliferation”.
